Measurements taken from ChEMBL document CHEMBL1132069, “Syntheses of two trimannose analogs each containing C-mannosyl or 5-thio-C-mannosyl residue: their affinities to concanavalin A” (Bioorg Med Chem Lett, 1999).

Experiment: Dissociation constant for the binding of compound to concanavalin A (Con A) was determined by fluorescence anisotropy inhibition assay.

Row | Compound | Kd
1 | OC[C@@H]1O[C@H](CC[C@@H]2O[C@H](O)[C@H](O)[C@@H](O[C@H]3O[C@@H](CO)[C@@H](O)[C@H](O)[C@H]3O)[C@@H]2O)[C@H](O)[C@@H](O)[C@@H]1O | 198 µM
2 | OC[C@@H]1O[C@H](O[C@@H]2[C@@H](O)[C@@H](O)O[C@@H](CC[C@H]3S[C@@H](CO)[C@@H](O)[C@H](O)[C@H]3O)[C@H]2O)[C@H](O)[C@@H](O)[C@@H]1O | 31 µM
